According to publication PMC11837686, “γ-Secretase modulator resistance of an aggressive Alzheimer-causing presenilin mutant can be overcome in the heterozygous patient state by a set of advanced compounds” (Alzheimer's Research & Therapy, 2025):
Values joined by “and” are separate entries in the source; they are usually repeats but may differ in a detail not shown here. Equal entries are not always repeated. “Also recorded” adds a separate entry of the source. Where two headings read alike, the source gives them in different places. Each block holds one molecule with its values, some of them ahead of it.

Tests used:
PS1 and PS2 NTF and CTF = experiment: Photoaffinity labeling with RO6874585 and competition, HEK293 membrane fractions; assay type: binding, human; conditions: for Competition of RO6874585 crosslinking to presenilin: 100x excess of competitor
Experimental: (§1) Membrane fractions of HEK293 or MEF cells were incubated with RO6874585 in the presence or absence of other GSMs used as competitor compounds as described previously. In brief, after photoactivation, samples were solubilised using SDS-containing buffer and the crosslinked proteins were pulled down with streptavidin-sepharose. Thereafter, samples were analysed by immunoblotting.

[1] = test system: γ-secretase in heterozygous (WT/L166P) PS1 L166P KI MEF cells; experiment: Secreted Aβ species by ELISA (IBL), heterozygous PS1 L166P KI MEF cells; conditions: for Aβ38 level in treated cells, % of total Aβ: GSM-1 2.5 µM, RO-02 500 nM, one range given for both compounds and both 'other genotypes'; for Combined pathogenic species (Aβ42 + Aβ43) / Secreted Aβ43: 24 h, RO7019009 500 nM, RO5254601 2.5 µM
[2] = biological target: γ-secretase (Aβ42) in H4/sw cell line (Homo sapiens, UniProt P49768+P49810); experiment: Aβ42 AlphaLISA dose–response in H4/sw cells
[3] = biological target: T1, endogenous γ-secretase in HEK293/sw cells (Homo sapiens, UniProt P49768+P49810); experiment: Aβ dose–response in HEK293/sw cells, MSD sandwich immunoassay
[4] = biological target: T2, γ-secretase in WT (WT/WT) MEF cells (Mus musculus, UniProt P49769+Q61144); experiment: Aβ species by Tris-Bicine urea SDS-PAGE/immunoblot, WT/WT MEF cells; conditions: RO-02 and RO7019009 500 nM, BPN-15606 360 nM; for Aβ40 (gel): WT MEF (genotype not given), RO5254601 2.5 µM; for Short species Aβ37 and Aβ38 (gel): WT MEF
[5] = biological target: γ-secretase in WT iPSC-derived cortical neurons (Homo sapiens, UniProt P49768+P49810); experiment: Secreted Aβ species by immunoassays, WT iPSC-derived cortical neurons; conditions: 3 days, RO7019009 500 nM or 2.5 µM, RO5254601 2.5 µM
[6] = test system: iPSC-derived cortical neurons (total Aβ); experiment: Total Aβ by MSD sandwich immunoassay (2D8/4G8) in iPSC-derived neurons; conditions: WT, heterozygous and homozygous neurons, 3 days; RO7019009 500 nM or 2.5 µM, RO5254601 2.5 µM
Notch1 cleavage = Notch1 cleavage reporter assay (NICD release), HEK293-based reporter cell line; conditions: dose–response
[7] = biological target: γ-secretase in homozygous L166P/L166P iPSC-derived cortical neurons (Homo sapiens, UniProt P49768+P49810, L166P); experiment: Secreted Aβ species by immunoassays, homozygous PS1 L166P KI iPSC-derived neurons; conditions: 3 days
[8] = test system: γ-secretase in heterozygous WT/L166P iPSC-derived cortical neurons; experiment: Secreted Aβ species by immunoassays, heterozygous PS1 L166P KI iPSC-derived neurons; conditions: 3 days, RO7019009 500 nM or 2.5 µM, RO5254601 2.5 µM
[9] = biological target: T3, γ-secretase in homozygous (L166P/L166P) PS1 L166P KI MEF cells (Mus musculus, UniProt P49769+Q61144, L166P); experiment: Aβ species by Tris-Bicine urea SDS-PAGE/immunoblot, homozygous PS1 L166P KI MEF cells
[10] = test system: γ-secretase in heterozygous (WT/L166P) PS1 L166P KI MEF cells; experiment: Aβ species by Tris-Bicine urea SDS-PAGE/immunoblot, heterozygous PS1 L166P KI MEF cells; conditions: for Aβ40 (gel): heterozygous KI MEF (genotype not given), RO5254601 2.5 µM; for Aβ40 (gel) / Short species Aβ37 and Aβ38 (gel): RO-02 and RO7019009 500 nM, BPN-15606 360 nM
[11] = biological target: T2, γ-secretase in WT (WT/WT) MEF cells; experiment: Secreted Aβ species by ELISA (IBL), WT/WT MEF cells; conditions: for Secreted Aβ38: RO7019009 500 nM
[12] = biological target: T3, γ-secretase in homozygous (L166P/L166P) PS1 L166P KI MEF cells; experiment: Secreted Aβ species by ELISA (IBL), homozygous PS1 L166P KI MEF cells; conditions: GSM-1 2.5 µM, RO-02 500 nM, one range printed for both compounds, measurable in half of the samples
[13] = biological target: T1, endogenous γ-secretase in HEK293/sw cells; parameters: endogenous γ-secretase in HEK293/sw cells; endogenous in cells; host or cells: HEK293/sw (HEK293 stably expressing APPsw); conditions: read-out: IC50 (Aβ42); cited from earlier work
brain-derived cell lines = test system: brain-derived cell lines; parameters: method as in PMID 31762188; conditions: read-out: IC50 (Aβ42); cited from earlier work
PS1 L166P = biological target: T4, PS1 L166P (Mus musculus, UniProt P49769, L166P); experiment: Photoaffinity labeling with RO6874585, WT or PS1 L166P KI MEF membrane fractions; assay type: binding
T4 construct: crosslinking efficiencies of PS1 NTF and PS1 CTF in WT or PS1 L166P KI MEF cell membranes; endogenous in cells; host or cells: membrane fractions of PS1 L166P knock-in MEF cells
Experimental: as §1

[14] = read-out: Aβ42 IC50 [nM ± SD], H4/sw cells, over-night incubation, Aβ42-AlphaLisa, 4–7 independent experiments

SMILES: CC(C)CCC(c1ccc(Cl)cc1)N1CCC(CC(=O)O)CC1c1ccc(C(F)(F)F)cc1 (stereo not drawn) [GSM-1, reference compound]
Competition of RO6874585 crosslinking to presenilin (PS1 and PS2 NTF and CTF): did not or only weakly compete binding
Aβ38 level in treated cells, % of total Aβ [1]: 30–60%

IC50 [2]: 63.3 ± 24.1 nM
Aβ37 production ([3]; dose–response): increased Aβ37
Aβ38 production ([3]; dose–response): increased the production of Aβ38
Aβ40 production ([3]; dose–response): largely unaffected
Aβ40 (gel) [4]: little effect on Aβ40
Effect on Aβ species profile [5]: primarily acted on Aβ42 and Aβ38
Secreted Aβ42 [8]: reduced only Aβ42
Secreted Aβ43 [8]: had no effect on Aβ43
Aβ42 (gel) ([9]; RO5254601 2.5 µM): markedly lowering Aβ42
SMILES: CC(=O)N1CCCC(c2ccc3[nH]c(C(=O)Nc4cc(F)cc(F)c4)cc3c2)C1 (stereo not drawn) [RO5254601]
Competition of RO6874585 crosslinking to presenilin (PS1 and PS2 NTF and CTF): competed with presenilin binding of RO6874585
Total Aβ levels [6]: without affecting total Aβ levels
Combined pathogenic species (Aβ42 + Aβ43) [1]: lower the ratio of combined pathogenic species
Secreted Aβ43 [1]: could not lower Aβ43
Notch1 cleavage / NICD release (Notch1 cleavage): did not impair Notch1 cleavage
Long species (Aβ42 + Aβ43), overall fraction / sum ([7]; RO5254601 2.5 µM): not reduced; also recorded: barely reduced the sum of long Aβ42 and Aβ43 species
Aβ40 (gel) [10]: little effect on Aβ40

IC50 [2, 14]: 207 ± 32.4 nM
SMILES: CC(C)N1CCCC(c2ccc3[nH]c(C(=O)Nc4cccc(F)c4)cc3c2)C1 (stereo not drawn) [RO5218165]
Competition of RO6874585 crosslinking to presenilin (PS1 and PS2 NTF and CTF): differential competition for NTF and CTF binding

IC50 [2, 14]: 229 ± 69.8 nM
SMILES: CC(C)N1CCC(Oc2ccc3[nH]c(C(=O)Nc4ccc(F)c(F)c4)cc3c2)C1 (stereo not drawn) [RO5218863]
Competition of RO6874585 crosslinking to presenilin (PS1 and PS2 NTF and CTF): competed with presenilin binding

IC50 [2]: 20.5 ± 4.38 nM
Aβ38 level in treated cells, % of total Aβ ([11]; GSM-1 2.5 µM, RO-02 500 nM, one range given for both compounds and both 'other genotypes'): 30–60%
Aβ40 (gel) [4]: strong reduction of Aβ40
Aβ38 level in treated cells, % of total Aβ [12]: 6–8%
SMILES: COc1cc(Nc2nc(Cc3ccc(Cl)cc3)cc(C(C)(C)O)n2)ccc1-n1cnc(C)c1 [RO-02, reference compound]
Competition of RO6874585 crosslinking to presenilin (PS1 and PS2 NTF and CTF): did not or only weakly compete binding
Short species Aβ37 and Aβ38 (gel) [4]: increase of both short species, Aβ37 and Aβ38
Aβ38 level in treated cells, % of total Aβ [1]: 30–60%
Aβ40 (gel) [10]: strong reduction of Aβ40
Short species Aβ37 and Aβ38 (gel) ([10]; heterozygous KI MEF): increase of both short species, Aβ37 and Aβ38
IC50 [13]: ~15 nM and 15 nM

SMILES: COc1nc(-c2cc(C)c(N[C@@H](C)c3ccc(F)cc3)nn2)ccc1-n1cnc(C)c1 [BPN-15606, reference compound]
IC50 [2]: 16.9 ± 8.22 nM
Secreted Aβ42 ([11]; 24 h, BPN-15606 360 nM): reduced Aβ42 levels
Secreted Aβ38 ([11]; 24 h, BPN-15606 360 nM): increase of Aβ38
IC50 ([3]; IC50 (Aβ42), 16–18 h, MSD sandwich immunoassay, this study): ~12 nM and 12 nM
Aβ40 (gel) [4]: strong reduction of Aβ40
Short species Aβ37 and Aβ38 (gel) [4]: increase of both short species, Aβ37 and Aβ38
Aβ43 (gel) ([9]; BPN-15606 500 nM): strong reduction of Aβ43
Aβ40 (gel) [10]: strong reduction of Aβ40

IC50 [2]: 3.76 ± 0.6 nM
Secreted Aβ38 ([11]; 24 h, BPN-15606 360 nM): strongly increased Aβ38
Aβ40 (gel) [4]: strong reduction of Aβ40
Secreted Aβ42 [8]: reduced both Aβ42 and Aβ43
Secreted Aβ43 [8]: reduced both Aβ42 and Aβ43
Aβ38 (gel) ([9]; RO7019009 500 nM): increased generation of Aβ38
Processivity: ratio of shorter Aβ37/38 combined with Aβ40 to longer Aβ42/43 species ([9]; RO7019009 500 nM): increased processivity
SMILES: Cc1nsc(N2CC3CCC(C2)C3Nc2nc3c(-c4ccc(F)c(F)c4F)cccn3n2)n1 (stereo not drawn) [RO7019009]
Competition of RO6874585 crosslinking to presenilin (PS1 and PS2 NTF and CTF): differential competition for NTF and CTF binding
IC50 (brain-derived cell lines): ≥ 2 nM
Short species Aβ37 and Aβ38 (gel) [4]: increase of both short species, Aβ37 and Aβ38
Effect on Aβ species profile [5]: reduced Aβ40 and Aβ42 while increasing both shorter species Aβ37 and Aβ38
Total Aβ levels [6]: without affecting total Aβ levels
Combined pathogenic species (Aβ42 + Aβ43) [1]: effective lowering of the generation of total pathogenic Aβ42/43 species
Secreted Aβ43 [1]: only potently effective compound in lowering Aβ43
Effect on Aβ species profile ([7]; RO7019009 500 nM or 2.5 µM): efficiently reduced not only Aβ40 but also Aβ43 and, especially at higher concentrations, Aβ42
Aβ40 (gel) [10]: strong reduction of Aβ40
Processivity: ratio of shorter Aβ37/38 combined with Aβ40 to longer Aβ42/43 species ([10]; heterozygous KI MEF, RO7019009 500 nM): increased processivity
Short species Aβ37 and Aβ38 (gel) ([10]; heterozygous KI MEF): increase of both short species, Aβ37 and Aβ38
IC50 [13]: ~14 nM and 14 nM

IC50 [2, 14]: 0.33 ± 0.01 nM
SMILES: C[C@H](NC(=O)Cc1cc(F)cc(F)c1)C(=O)N[C@@H]1C(=O)N(C)c2ccccc2-c2ccccc21 [DBZ, dibenzazepine, reference compound]
Notch1 cleavage / NICD release (Notch1 cleavage): reduced the levels of the Notch1 intracellular domain

Photoaffinity labeling of PS1 L166P versus WT (PS1 L166P): without apparent differences to the WT
Aβ42 lowering ([2]; H4/sw cells): lowering Aβ42
IC50 [2, 14]: 128 ± 44.7 nM
SMILES: O=C(CCCC[C@@H]1SC[C@@H]2NC(=O)N[C@@H]21)NCCOCCOCCOCCNC(=O)COc1ccc(C(=O)c2ccc(OCC(=O)N3CC[C@@H](Oc4ccc5[nH]c(C(=O)Nc6ccc(F)c(F)c6)cc5c4)C3)cc2)cc1 [RO6874585]
Proteins labeled by photoaffinity probe (PS1 and PS2 NTF and CTF; UV crosslinking, streptavidin pull-down, immunoblot): PS1 and PS2 NTF and CTF as specific targets
Notch1 cleavage / NICD release (Notch1 cleavage): without inhibiting Notch1 processing
